In US8211436B2, “Anticancer vaccine and diagnostic methods and reagents” (University of Pittsburgh—Of the Commonwealth System of …, priority 2001, dated 2012):

Key:
MS-A2 tumor = assay: CTL assay, peptide-sensitized T cells against MS-A2; type: cell-based, human; set-up: killing of the original tumor by peptide-specific T cells: dose or concentration left out as unconfirmed
Protocol: (§1) Priming naïve CD8^+ T cells from a healthy donor to cyclin B1 peptides in vitro. Naïve CD8^+ T cells and in vitro generated dendritic cells were purified as described above in Example 1. 2×10^4 dendritic cells were loaded overnight with […]/well peptide in 96-well U-bottom plates (Falcon, Franklin lakes, NJ) and mixed with 2×10^5 autologous naïve CD8^+ T cells the next day in the presence of 2 ng/ml IL-1b (R & D Systems, Minneapolis, Minn.), 20 U/ml IL-2 (DuPont, Wilmington, Del.), and 10 U/ml IL-4 (Schering Plough). Depending on growth kinetics, T cells were fed every 3-4 days with 10 U/ml IL-2 and 5 U/ml IL-4. T cells were restimulated every 7-10 days using peptide-loaded autologous macrophages.
Stimulating CD8^+ T cells from breast cancer and SCCHN patients with cyclin B1 peptides in vitro. PBMCs from cancer patients were X-irradiated at 3000 Rads, loaded with […] of the indicated peptides for 2-4 hours, and mixed with autologous PBMCs in the presence of 20 U/ml IL-2 (DuPont). […]
Cytotoxicity assays. […] Supernatants were harvested using a Skatron harvesting press (Skatron Instruments, Sterling, Va.) and counted on a Cobra II series auto gamma counting system (Packard, Meriden, Conn.). […] Percent specific lysis was calculated from the following formula: % specific lysis=100×(experimental release−spontaneous release)/(maximum release−spontaneous release).

MS-A2/CD80 tumor = assay: CTL assay, peptide-sensitized T cells against MS-A2/CD80; type: cell-based, human; conditions: SCCHN Patient A T cells, target MS-A2/CD80
Protocol: (§2) Stimulating CD8^+ T cells from breast cancer and SCCHN patients with cyclin B1 peptides in vitro. PBMCs from cancer patients were X-irradiated at 3000 Rads, loaded with […] of the indicated peptides for 2-4 hours, and mixed with autologous PBMCs in the presence of 20 U/ml IL-2 (DuPont). The T cell cultures were fed every 3-4 days with 10 U/ml IL-2, and restimulated every 10-12 days, if necessary, using peptide-loaded autologous irradiated PBMCs. All T cell cultures were grown in RPMI medium (ICN, Costa Mesa, Calif.) supplemented with 10% human AB sera (Gemini Products, Calabasas, Calif.), L-glutamine, and penicillin/streptomycin (Life Technologies).
(§3) Cytotoxicity assays. 1-2×10^6 target cells were labeled with 50 mCi of Na2^51CrO4 (Amersham, Arlington Heights, Ill.) for 90 minutes at 37° C. The labeled cells were then washed three times and plated at 1×10^3 cells/well in a 96-well V-bottom plate (Costar, Cambridge, Mass.) with various numbers of effector T cells. […] Supernatants were harvested using a Skatron harvesting press (Skatron Instruments, Sterling, Va.) and counted on a Cobra II series auto gamma counting system (Packard, Meriden, Conn.). […] Percent specific lysis was calculated from the following formula: % specific lysis=100×(experimental release−spontaneous release)/(maximum release−spontaneous release).

[1] = test system: PBMCs from HLA-A*0201 SCCHN patients; assay: IFN-γ ELISPOT, PBMCs of SCCHN patients with cyclin B1 peptides; type: cell-based, human; conditions: for peptide-specific T cells, IFN-γ ELISPOT: SCCHN Patient A, absence of any in vitro stimulation; for HLA Class I-restricted T cell response, IFN-γ ELISPOT: SCCHN Patient B; for T cell response, IFN-γ ELISPOT: SCCHN Patient D; for blocking of the response with anti-Class I antibody: SCCHN Patient C
Protocol: (§4) IFN-γ ELISPOT Assays. IFN-g ELISPOT assays were conducted as previously described (Herr et al., J. Immunol. Methods, 191(2), 131-42 (1996)). Briefly, nitrocellulose plates (Millipore, Bedford, Mass.) were coated with the anti-IFN-γ capture mAb 1-D1K (MabTech, Stockholm, Sweden) overnight at 4° C. For assays using dendritic cells as APCs, DCs were loaded with […] of the indicated peptides for 2-6 hrs, and mixed with autologous T cells at a DC:T ratio of 1:10 for 20 hours at 37° C. For assays using autologous PBMCs as APCs, PBMCs were irradiated at 3000 Rads, loaded with […] of peptides for 4 hours, and mixed with autologous T cells at an APC:T ratio of 1:5 for 40 hours at 37° C. The T cells were seeded at 3×10^3-1×10^5 cells/well. All assays were done in serum-free AIM-V medium (Gibco Life Technologies, Grand Island, N.Y.). The plates were then washed in PBS+0.1% Tween and stained with anti-IFN-γ mAb 7-B6-1 (Mabtech) for 2 hours at 37° C. The plates were washed, and the avidin-peroxidase complex (Vectastain ABC Kit, Vector Laboratories) was added to the plates for 1 hour. The plates were then developed using AEC (Sigma) substrate, and spots were quantified microscopically with an inverted phase-contrast microscope (Carl Zeiss, Hallbergmoos, Germany) along with a computer-assisted image analysis system (KS ELISPOT). For HLA Class I blocking experiments, the W6/32 antibody was added to the APCs for 30-45 minutes prior to the incubation with the T cells.
as §2

K562 = assay: CTL assay, peptide-sensitized T cells against K562 (LAK control); type: cell-based, human; conditions: SCCHN Patient A T cells, target K562
Protocol: as §2, §3

[2] = test system: CD8+ T cells from an HLA-A*0201 healthy donor; assay: IFN-γ ELISPOT, naive CD8+ T cells of a healthy donor primed in vitro to synthetic cyclin B1 peptides; type: cell-based, human; conditions: for antigen-specific IFN-γ secretion by CD8+ T cells: healthy HLA-A2.1+ donor, after several rounds of restimulation (fourth)
Protocol: as §4, §1

HLA-A2.1 = target: T1, HLA-A2.1 (Homo sapiens, UniProt P04439, D140Y/D185E/D98H/E176V/E277Q/G131W/G231S/I119V/I121R/I166T/I218V/L300P/L318F/N151K/N90K/P208A/P217A/Q86G/Q94H/R138H/R169H/T345S); assay: HLA Class I stabilization assay on T2 cells; conditions: 20 mg/ml peptide, 18-20 hours, MA2.1 staining, >1 indicates binding
T1 construct: Peptide-induced stabilization of HLA-A2.1 molecules on T2 cells; endogenous in cells; host or cells: T2 cells
Protocol: HLA Class I stabilization assays. Peptide-induced stabilization of HLA-A2.1 molecules on T2 cells was done as previously described (Zeh et al., Hum. Immunol., 39(2), 79-86 (1994)). 2×10^5 T2 cells were incubated with […] of the indicated synthetic peptides in […] human B2m (Calbiochem, La Jolla, Calif.) for 18-20 hours at room temperature. The cells were then stained with the HLA-A2.1-specific antibody, MA2.1, for 45 minutes, washed with FACS Buffer (PBS, 5% FBS, and 0.01% sodium azide), and stained with a secondary FITC-conjugated anti-IgG antibody (Biosource International, Camarillo, Calif.). The cells were fixed in 4% formaldehyde prior to flow cytometry analysis. The negative control consisted of T2 cells without peptide. […] (SEQ ID NO:11). Flow cytometric analysis was done using a FACScan flow cytometer (Becton-Dickinson).

[3] = test system: PBMCs from HLA-A2+ breast cancer patients; assay: IFN-γ ELISPOT, PBMCs of breast cancer patients with cyclin B1 peptides; type: cell-based, human
Protocol: as §4, §2

[4] = breast cancer Patient A, one in vitro stimulation
[5] = breast cancer Patient C, no in vitro stimulation
[6] = breast cancer Patient D, no in vitro stimulation

| Sequence | HLA Class I-restricted T cell response, IFN-γ ELISPOT [1] | T cell response, IFN-γ ELISPOT [1] | antigen-specific IFN-γ secretion by CD8+ T cells [2] | HLA-A2.1 Binding (MFI of T2 cells loaded with peptide / MFI of T2 cells with no peptide) (HLA-A2.1) [X-Fold increase] | T cell response, IFN-γ ELISPOT [3, 4] | T cell response, IFN-γ ELISPOT [3, 6] | further results |
| --- | --- | --- | --- | --- | --- | --- | --- |
| AGYLMELCC (cyclin-derived polypeptide) [SEQ ID NO:4, tumor-derived cyclin B1 9-mer peptide] | HLA Class I-restricted T cell responses | appeared specific | detected | 1.61 | strong HLA Class I-restricted secondary T cell responses | strong HLA Class I-restricted T cell responses | lysis of tumor by T cells sensitized to the peptide (MS-A2 tumor; SCCHN Patient A T cells, target MS-A2): to a lesser extent; killing of the original tumor by peptide-specific T cells (MS-A2 tumor; healthy donor T cells primed with high peptide concentration): unable to kill the original tumor; lysis of tumor by T cells sensitized to the peptide (MS-A2/CD80 tumor): able to lyse; peptide-specific T cells, IFN-γ ELISPOT [1]: peptide-specific T cells also were detected; lysis by T cells sensitized to the peptide (K562): not; blocking of the T cell response by anti-Class I antibody W6/32 ([2]; healthy donor): blocked; T cell response, IFN-γ ELISPOT [3, 5]: peptide-specific HLA Class I-restricted T cell responses; T cell response, IFN-γ ELISPOT ([3]; breast cancer Patients E and F): did not respond |
| AGYLMELCF (cyclin-derived polypeptide) [SEQ ID NO:3, tumor-derived cyclin B1 9-mer peptide] | HLA Class I-restricted T cell responses |  |  | 1.42 |  |  |  |
| AGYLMELCFA (cyclin-derived polypeptide) [SEQ ID NO:6, tumor-derived cyclin B1 10-mer peptide] |  |  | not | 2.08 |  |  |  |
| AGYLMELCM (cyclin-derived polypeptide) [SEQ ID NO:2, tumor-derived cyclin B1 9-mer peptide] | not |  | not | 1.48 |  |  | blocking of the response with anti-Class I antibody [1]: could be blocked |
| AGYLMELCMA (cyclin-derived polypeptide) [SEQ ID NO:5, tumor-derived cyclin B1 10-mer peptide] |  | appeared specific | not | 1.58 |  |  |  |
| AGYLMELCV (cyclin-derived polypeptide) [SEQ ID NO:1, tumor-derived cyclin B1 9-mer peptide] | not |  | not | 1.60 |  |  | T cell response, IFN-γ ELISPOT ([3]; breast cancer Patient B (HLA-A*0206), two in vitro stimulations): weak secondary response |
| AKYLMELTM (cyclin-derived polypeptide) [SEQ ID NO:7, human (HeLa) cyclin B1 peptide from the database] | HLA Class I-restricted T cell responses | appeared specific |  | 2.28 | strong HLA Class I-restricted secondary T cell responses | lower responses | lysis of tumor by T cells sensitized to the peptide (MS-A2/CD80 tumor): able to lyse; peptide-specific T cells, IFN-γ ELISPOT [1]: peptide-specific T cells also were detected; T cell response, IFN-γ ELISPOT [3, 5]: peptide-specific HLA Class I-restricted T cell responses; blocking of the response by anti-MHC Class I antibody ([3]; breast cancer Patient D): blocked; T cell response, IFN-γ ELISPOT ([3]; breast cancer Patients E and F): did not respond |
| AKYLMELTML (cyclin-derived polypeptide) [SEQ ID NO:8, human (HeLa) cyclin B1 peptide from the database] |  |  |  | 2.25 | strong HLA Class I-restricted secondary T cell responses |  | blocking of the response with anti-Class I antibody [1]: could be blocked |
| ILKEPGSHV (HIV-POL-derived polypeptide) [reference compound] |  |  | not |  | no recognition | lower responses |  |
